# In patent publication US7232570B2, “ERAAP modulators regulate immune responses” (Regents of the University of California, priority 2002, dated 2007):
# How the values were obtained:
# human source ERAAP = human source ERAAP (Homo sapiens, UniProt Q9NZ08); assay: ERAAP modulation/selectivity screen against a panel of other aminopeptidases; assay type: biochemical; settings: preferential inhibition of ERAAP compared with a panel of other aminopeptidases
# Description: The targeted ERAAP is a well-known, naturally-occurring aminopeptidase, which has been biochemically characterized and cloned in a wide variety of animal species, including mice, rats and humans. […] Note that the same enzyme has been called “A-LAP” (adipocyte-derived leucine aminopeptidase) by others (e.g. Hattori et al., supra).
# Protocols for delivering the inhibitor and effective dosages are known in the art and/or readily determined empirically by those skilled in the art guided by the selected inhibitor and the present disclosure. […] For example, the well-characterized structural interaction between aminothiol inhibitors of aminopeptidases (e.g. Bienvenue et al., J Inorgan Biochem 2000, 78, 43-54) were exploited to select ERAAP selective aminothiol-type inhibitors. In this manner, we screened panels of compounds and identified a number of ERAAP-selective aminothiol inhibitors, including leucine thiol and lysinethiol. ERAAP modulation assays may be performed by any convenient protocol, including those described by us in Serwold et al. (2001, supra), those of Hattori et al. (2000, supra), etc. […] Alternative aminopeptidase inhibitor pharmacophores for ERAAP selectivity and method compatibility screens include L-bis (1-thio-2-amino-4-methylpentane) dihydrochloride (TAMP) and L-bis (1-thio-2-amino-3-phenylpropane) dihydrochloride (TAPP) (see, e.g. Weiss et al., Res Comm Chem Path Pharmacol 1988, 62, 113-2) and alpha-thiolbestatins (e.g. Ocain et al., J Med Chem 1988 November;31(11):2193-9).
# [1] = test system: antigen presenting cells (APC); assay: APC assays with peripheral blood leukocytes from aminothiol-treated rats; assay type: in vivo, Sprague-Dawley rats; settings: peripheral blood leukocytes of treated rats as APC for T cells specific for K^b or D^b presented peptides
# [2] = biological target: T1, predominant aminopeptidase activity present in the ER (ERAAP) (Mus musculus, UniProt Q9EQH2); assay: Aminopeptidase activity of solubilized microsomes, colorimetric substrate leucine-p-nitroanilide; assay type: biochemical, mice; settings: ion exchange chromatography of solubilized microsomes from mouse liver and spleen
# T1 construct: Microsomes from liver and spleens of mice were solubilized in detergent; from tissue; host or cells: mouse liver and spleen microsomes
# T1 sequence (Q9EQH2 1-930): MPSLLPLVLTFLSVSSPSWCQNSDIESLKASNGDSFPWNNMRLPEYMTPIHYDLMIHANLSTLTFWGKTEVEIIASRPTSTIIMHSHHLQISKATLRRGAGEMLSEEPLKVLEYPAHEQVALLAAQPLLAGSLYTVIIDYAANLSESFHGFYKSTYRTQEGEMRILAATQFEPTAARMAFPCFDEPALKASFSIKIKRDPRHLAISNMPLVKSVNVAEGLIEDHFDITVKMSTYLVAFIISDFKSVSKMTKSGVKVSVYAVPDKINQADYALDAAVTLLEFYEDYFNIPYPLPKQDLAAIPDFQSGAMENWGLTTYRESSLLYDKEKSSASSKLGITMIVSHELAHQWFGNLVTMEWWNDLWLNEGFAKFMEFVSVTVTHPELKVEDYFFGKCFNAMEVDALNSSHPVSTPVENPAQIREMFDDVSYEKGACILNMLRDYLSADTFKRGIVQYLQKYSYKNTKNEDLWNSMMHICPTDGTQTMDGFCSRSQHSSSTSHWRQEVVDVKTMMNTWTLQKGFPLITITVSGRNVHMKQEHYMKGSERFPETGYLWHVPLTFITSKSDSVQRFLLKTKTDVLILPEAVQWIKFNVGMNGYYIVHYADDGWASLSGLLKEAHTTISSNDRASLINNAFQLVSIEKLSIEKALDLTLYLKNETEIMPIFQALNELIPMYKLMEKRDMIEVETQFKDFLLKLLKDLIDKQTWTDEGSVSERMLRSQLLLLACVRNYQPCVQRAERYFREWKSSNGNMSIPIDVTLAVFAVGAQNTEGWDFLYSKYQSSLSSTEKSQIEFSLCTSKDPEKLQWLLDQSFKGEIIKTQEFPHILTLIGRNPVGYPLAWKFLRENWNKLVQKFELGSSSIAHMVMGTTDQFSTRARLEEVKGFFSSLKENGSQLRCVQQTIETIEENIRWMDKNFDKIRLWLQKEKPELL
# Description: To identify this protease, we biochemically purified the predominant aminopeptidase activity present in the ER. Microsomes from liver and spleens of mice were solubilized in detergent and the aminopeptidase activity was monitored by the colorimetric substrate leucine-p-nitroanilide (9). […] This activity was precipitated from solubilized microsomes by ammonium sulfate, resolublized and fractionated by size exclusion, ion exchange and hydrophobic interaction chromatographies. The highly enriched fractions from the final purification step contained a major band of approximately 100 kD on a coommassie blue stained SDS-PAGE gel. This band was subjected to in-gel trypsin digestion and the peptides were analyzed by MALDI-TOF mass spectrometry; the resulting tryptic peptide fingerprint was used to search the NCBI database (10). In two independent experiments 25 masses matched the predicted output of trypsin digested murine adipocyte-derived leucine aminopeptidase (Genbank Accession # AF227511). This assignment was further confirmed with the amino acid sequences of four peptides determined by high energy CID MS-MS analysis (11). This 930 amino acid murine aminopeptidase and its human and rat homologues are known by a variety of different names (12). […]
# Sprague-Dawley rats = assay: Phenotypic and functional indicia of immunosuppression in treated rats; assay type: in vivo
# ERAAP = ERAAP expression in cultured fibroblasts treated with interferon gamma; assay type: cell-based
# Protocol: MHC I molecules are expressed by virtually all tissues. To determine whether ERAAP expression correlated with that of MHC I, seven different mouse tissues were analyzed by western blot for expression of ERAAP, MHC I and the housekeeping proteins actin and gp96 as controls. ERAAP was detected in all tissues analyzed but its expression was highest in the liver, lung, spleen and thymus, the same tissues which also expressed the highest levels of MHC I molecules. Furthermore, the expression of ERAAP was increased approximately 10-fold by treatment of cultured fibroblasts with the inflammatory cytokine interferon gamma, which also upregulates many other key components in the antigen processing pathway (17).
# Chain of human source ERAAP (Q9NZ08 whole entry): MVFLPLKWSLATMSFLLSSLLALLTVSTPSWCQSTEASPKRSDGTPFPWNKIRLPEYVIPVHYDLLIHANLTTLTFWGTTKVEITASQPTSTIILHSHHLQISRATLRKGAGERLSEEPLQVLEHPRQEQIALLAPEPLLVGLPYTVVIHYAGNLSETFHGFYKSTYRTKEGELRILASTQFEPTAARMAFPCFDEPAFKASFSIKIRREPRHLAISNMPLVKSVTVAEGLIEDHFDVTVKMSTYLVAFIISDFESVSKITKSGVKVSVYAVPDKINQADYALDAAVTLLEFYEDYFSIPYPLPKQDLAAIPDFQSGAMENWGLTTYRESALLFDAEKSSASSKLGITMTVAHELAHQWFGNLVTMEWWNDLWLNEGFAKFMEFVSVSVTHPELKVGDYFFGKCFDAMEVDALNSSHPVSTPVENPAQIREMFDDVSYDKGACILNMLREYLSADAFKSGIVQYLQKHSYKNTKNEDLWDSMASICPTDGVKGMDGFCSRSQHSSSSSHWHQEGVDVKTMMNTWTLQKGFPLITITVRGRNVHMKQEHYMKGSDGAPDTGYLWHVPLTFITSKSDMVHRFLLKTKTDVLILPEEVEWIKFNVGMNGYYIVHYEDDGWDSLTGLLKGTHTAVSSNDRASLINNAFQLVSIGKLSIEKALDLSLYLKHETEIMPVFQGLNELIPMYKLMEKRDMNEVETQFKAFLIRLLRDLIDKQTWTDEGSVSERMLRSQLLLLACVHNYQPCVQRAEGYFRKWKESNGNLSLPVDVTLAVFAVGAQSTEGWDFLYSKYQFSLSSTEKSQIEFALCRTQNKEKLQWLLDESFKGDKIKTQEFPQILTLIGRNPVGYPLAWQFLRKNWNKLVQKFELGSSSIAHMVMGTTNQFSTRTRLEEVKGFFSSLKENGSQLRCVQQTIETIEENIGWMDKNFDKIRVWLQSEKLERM
molecule,measurement,setting,value
CC[C@H](C)[C@H](N)CS [isoleucinethiol],ERAAP selectivity,human source ERAAP,ERAAP-selective
CC(C)C[C@H](N)CS [leucinethiol],APC function,[1],pronounced inhibition
same,predominant aminopeptidase activity peak,[2],blocked
same,spleen and thymus volume,Sprague-Dawley rats,reduced
same,graft-host response,Sprague-Dawley rats; e.g. skin graft assays,reduced
same,ERAAP selectivity,human source ERAAP,ERAAP-selective
NCCCC[C@H](N)CS [lysinethiol],ERAAP selectivity,human source ERAAP,ERAAP-selective
interferon gamma: inflammatory cytokine,increase of ERAAP expression,ERAAP,approximately 10 fold
